Assay results published in ChEMBL document CHEMBL1201862, “PubChem BioAssay data set” (2004).
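In this assay, cells in 96-well plates receive the compound at five concentrations for 48 hours. Endpoints are linearly interpolated between the surrounding concentrations. At the GI50, growth is halved.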 Activity calls are given as the source filed them. No stated cut-off is given here; in the data, active = GI50 up to about 1.1 µM and inactive = higher.

Legend:
Experiment in all cases: inhibition of tumour cell growth, NCI panel, 48 h
UO-31 = system: UO-31
NCI/ADR-RES = system: NCI/ADR-RES
A549 = system: A549
OVCAR-4 = system: OVCAR-4
HOP-62 = system: HOP-62
COLO 205 = system: COLO 205
IGROV-1 = system: IGROV-1
KM12 = system: KM12
SN12C = system: SN12C
NCI-H460 = system: NCI-H460
UACC-62 = system: UACC-62
786-0 = system: 786-0
OVCAR-8 = system: OVCAR-8
T47D = system: T47D
SF-295 = system: SF-295
EKVX = system: EKVX
K562 = system: K562
CCRF-CEM = system: CCRF-CEM
Malme-3M = system: Malme-3M

Measured: GI50

CCOc1ccc(/C=C2/C(=O)N/C(=N\C(C)=O)N2C)cc1
inactive: UO-31 > 100 µM | NCI/ADR-RES > 100 µM | A549 > 100 µM | OVCAR-4 > 100 µM | HOP-62 96.6 µM | COLO 205 > 100 µM | IGROV-1 > 100 µM | KM12 > 100 µM | SN12C > 100 µM | NCI-H460 67.5 µM | UACC-62 > 100 µM | 786-0 > 100 µM | OVCAR-8 > 100 µM | T47D > 100 µM | SF-295 > 100 µM | EKVX 54.2 µM

COc1ccc2c(c1)CC[C@@H]1C2CC[C@]2(C)C(=O)N(CCN(C)C)C(=O)CC12 (stereo partly drawn)
inactive: UO-31 > 100 µM | A549 > 100 µM | K562 > 100 µM | CCRF-CEM > 100 µM | OVCAR-4 > 100 µM | Malme-3M > 100 µM | HOP-62 > 100 µM | COLO 205 > 100 µM | IGROV-1 > 100 µM | KM12 > 100 µM | SN12C > 100 µM | NCI-H460 > 100 µM | UACC-62 > 100 µM | 786-0 > 100 µM | OVCAR-8 > 100 µM | T47D > 100 µM | SF-295 > 100 µM | EKVX > 100 µM

Cn1c(=O)c2c(nc(-n3nc(-c4ccc(Cl)cc4)cc3N)n2C)n(C)c1=O
inactive: UO-31 > 100 µM | NCI/ADR-RES 39.6 µM | A549 > 100 µM | K562 67.6 µM | CCRF-CEM > 100 µM | OVCAR-4 5.6 µM | Malme-3M 7.13 µM | HOP-62 10.5 µM | COLO 205 > 100 µM | IGROV-1 > 100 µM | KM12 > 100 µM | SN12C > 100 µM | NCI-H460 > 100 µM | UACC-62 65.6 µM | 786-0 6.9 µM | OVCAR-8 18.1 µM | SF-295 25.5 µM | EKVX > 100 µM

C/C(=N\[N+](C)(C)C)C(c1ccccc1)C1(c2ccccc2)C(c2ccccc2)=C1c1ccccc1 (stereo not drawn)
inactive: UO-31 53.1 µM | A549 > 100 µM | K562 > 100 µM | CCRF-CEM > 100 µM | OVCAR-4 > 100 µM | Malme-3M > 100 µM | HOP-62 33 µM | IGROV-1 > 100 µM | KM12 > 100 µM | SN12C > 100 µM | NCI-H460 > 100 µM | UACC-62 > 100 µM | 786-0 > 100 µM | OVCAR-8 67.5 µM | SF-295 41.1 µM | EKVX 40.7 µM

Cn1c(=O)n2n(c1=O)C(S(=O)(=O)c1ccccc1)C2 (stereo not drawn)
inactive: UO-31 > 100 µM | NCI/ADR-RES > 100 µM | A549 > 100 µM | K562 > 100 µM | CCRF-CEM > 100 µM | OVCAR-4 > 100 µM | Malme-3M > 100 µM | HOP-62 > 100 µM | COLO 205 > 100 µM | IGROV-1 > 100 µM | KM12 > 100 µM | SN12C > 100 µM | NCI-H460 > 100 µM | UACC-62 > 100 µM | 786-0 > 100 µM | OVCAR-8 > 100 µM | SF-295 > 100 µM | EKVX > 100 µM

CC1(C)OCC(C2OC(OC(=O)c3ccc(C(F)(F)F)cc3)C3OC(C)(C)OC23)O1 (stereo not drawn)
inactive: UO-31 19 µM | NCI/ADR-RES 62.1 µM | A549 > 77.4 µM | K562 > 77.4 µM | CCRF-CEM 28.2 µM | OVCAR-4 > 77.4 µM | Malme-3M > 77.4 µM | HOP-62 39.9 µM | COLO 205 > 77.4 µM | IGROV-1 > 77.4 µM | KM12 72.3 µM | SN12C > 77.4 µM | NCI-H460 49.5 µM | UACC-62 > 77.4 µM | 786-0 46.5 µM | OVCAR-8 > 77.4 µM | SF-295 > 77.4 µM | EKVX > 77.4 µM

COc1ccc(C2c3cc4c(cc3OC(NNS(=O)(=O)c3ccc(C)cc3)C2C)OCO4)cc1 (stereo not drawn)
inactive: UO-31 31.2 µM | A549 29.3 µM | K562 10.6 µM | CCRF-CEM 11.1 µM | Malme-3M > 100 µM | HOP-62 > 100 µM | COLO 205 36.3 µM | IGROV-1 57.1 µM | KM12 65.9 µM | SN12C > 100 µM | NCI-H460 41 µM | UACC-62 71.6 µM | 786-0 50.1 µM | OVCAR-8 > 100 µM | T47D 54.2 µM | SF-295 21.9 µM

CCOC(=O)Nc1[nH]cc(-c2ccccc2)c1C#N
inactive: UO-31 > 100 µM | NCI/ADR-RES > 100 µM | A549 > 100 µM | K562 > 100 µM | CCRF-CEM > 100 µM | OVCAR-4 > 100 µM | Malme-3M > 100 µM | HOP-62 > 100 µM | COLO 205 > 100 µM | IGROV-1 > 100 µM | KM12 > 100 µM | SN12C > 100 µM | UACC-62 > 100 µM | 786-0 > 100 µM | OVCAR-8 > 100 µM | SF-295 > 100 µM | EKVX > 100 µM

CC(=O)OC1OC(c2ccoc2)C[C@@]12C1CCC3O[C@]3(C)[C@]1(C)[C@H](OC(C)=O)[C@H](OC(C)=O)[C@H]2C (stereo partly drawn)
inactive: UO-31 > 37.5 µM | NCI/ADR-RES > 37.5 µM | A549 > 37.5 µM | K562 > 37.5 µM | CCRF-CEM 11.2 µM | OVCAR-4 > 37.5 µM | Malme-3M > 37.5 µM | HOP-62 > 37.5 µM | COLO 205 > 37.5 µM | IGROV-1 > 37.5 µM | KM12 > 37.5 µM | SN12C > 37.5 µM | NCI-H460 > 37.5 µM | UACC-62 > 37.5 µM | 786-0 > 37.5 µM | OVCAR-8 > 37.5 µM | SF-295 > 37.5 µM | EKVX > 37.5 µM

O=c1[nH]c2c(S)nc(O)nc2n1-c1ccccc1
inactive: UO-31 > 100 µM | NCI/ADR-RES > 100 µM | A549 > 100 µM | K562 > 100 µM | OVCAR-4 > 100 µM | Malme-3M > 100 µM | HOP-62 > 100 µM | IGROV-1 > 100 µM | KM12 > 100 µM | SN12C > 100 µM | NCI-H460 > 100 µM | UACC-62 > 100 µM | 786-0 > 100 µM | OVCAR-8 > 100 µM | SF-295 > 100 µM | EKVX > 100 µM

O=C(Cc1cccs1)N[C@@H]1C(=O)N2C(C(=O)OC(c3ccccc3)c3ccccc3)=C(CO)CS[C@H]12
inactive: UO-31 17.9 µM | NCI/ADR-RES 96.6 µM | A549 > 100 µM | K562 > 100 µM | CCRF-CEM 20 µM | OVCAR-4 74.3 µM | Malme-3M 40.7 µM | COLO 205 > 100 µM | IGROV-1 29.9 µM | KM12 38.1 µM | SN12C > 100 µM | NCI-H460 75.2 µM | UACC-62 > 100 µM | 786-0 > 100 µM | OVCAR-8 > 100 µM | SF-295 > 100 µM | EKVX > 100 µM
